What was measured:
[1] = for viscosity / electrical conductivity: 101 kPa, Liquid; for viscosity: Cone and plate viscometry; for electrical conductivity: Frequency=0 MHz, Direct current cell with electrodes
[2] = mn = molality of the nth substance listed, in mol/kg; conditions: 101 kPa, Liquid; for viscosity: Cone and plate viscometry; for electrical conductivity: Frequency=0 MHz, Direct current cell with electrodes

CCCC[N+]1(C)CCCC1.O=S(=O)([N-]S(=O)(=O)C(F)(F)F)C(F)(F)F
[1]
Conditions | electrical conductivity [S/m] | viscosity [mPa·s]
293.15 K | 0.25 | 102
303.15 K | – | 67
312.15 K | – | 47
312.17 K | – | 47
313.15 K | 0.47 | –
321.22 K | – | 36
323.15 K | 0.63 | –
330.29 K | – | 28
333.15 K | 0.8 | –
339.37 K | – | 22
343.15 K | 1.01 | –
348.44 K | – | 17
353.15 K | 1.21 | –
357.52 K | – | 14
367.49 K | – | 11
373.15 K | 1.74 | –
377.46 K | – | 10
386.53 K | – | 8
393.15 K | 2.3 | –
394.73 K | – | 7
403.15 K | – | 6
413.15 K | 2.92 | –
433.15 K | 3.61 | –
453.15 K | 4.33 | –

Conditions | Normal melting temperature [°C]
[1], Crystal, DTA | -22

CCCC[N+]1(C)CCCC1.O=S(=O)([N-]S(=O)(=O)C(F)(F)F)C(F)(F)F + [F][Ta]([F])([F])([F])[F]
[2], m2 = 0
Conditions | electrical conductivity [S/m] | viscosity [mPa·s]
293.15 K | 0.25 | 102
303.15 K | – | 67
312.15 K | – | 47
312.17 K | – | 47
313.15 K | 0.47 | –
321.22 K | – | 36
323.15 K | 0.63 | –
330.29 K | – | 28
333.15 K | 0.8 | –
339.37 K | – | 22
343.15 K | 1.01 | –
348.44 K | – | 17
353.15 K | 1.21 | –
357.52 K | – | 14
367.49 K | – | 11
373.15 K | 1.74 | –
377.46 K | – | 10
386.53 K | – | 8
393.15 K | 2.3 | –
394.73 K | – | 7
403.15 K | – | 6
413.15 K | 2.92 | –
433.15 K | 3.61 | –
453.15 K | 4.33 | –

[F][Ta]([F])([F])([F])[F] [Tantalum fluoride] + CCCC[N+]1(C)CCCC1.O=S(=O)([N-]S(=O)(=O)C(F)(F)F)C(F)(F)F
[2]
Conditions | electrical conductivity, 293.15 K [S/m] | electrical conductivity, 373.15 K [S/m] | electrical conductivity, 413.15 K [S/m] | electrical conductivity, 453.15 K [S/m] | viscosity, 303.15 K [mPa·s] | viscosity, 312.17 K [mPa·s] | viscosity, 321.22 K [mPa·s] | viscosity, 339.37 K [mPa·s] | viscosity, 367.49 K [mPa·s] | viscosity, 403.15 K [mPa·s]
m1 = 0.08 | 0.24 | 1.73 | 2.94 | 4.23 | 71 | 51 | 38 | 23 | 12 | 7
m1 = 0.17 | 0.23 | 1.66 | 2.81 | 4.16 | 73 | 52 | 40 | 24 | 12 | 7
m1 = 0.35 | 0.23 | 1.65 | 2.78 | 4.13 | 77 | 56 | 41 | 25 | 13 | 7
m1 = 0.7 | 0.22 | 1.56 | 2.66 | 3.84 | 81 | 59 | 44 | 26 | 14 | 8
m1 = 1.41 | 0.22 | 1.37 | 2.27 | 3.44 | 87 | 62 | 47 | 28 | 15 | 8

Source: the NIST ThermoML archive (doi:10.1016/j.fluid.2016.01.043)
